# Where “and” joins values, the source holds several entries; their conditions need not be identical. Identical values can stand only once. Toxic doses and inconclusive results are not listed.
# Tested on: CD2F1 mice, L1210 leukemia ip, survival T/C
# Experiment: NCI In Vivo Anticancer Drug Screen. Data for tumor model L1210 Leukemia (intraperitoneal) in CD2F1 (CDF1) mice
# Conditions: higher = longer survival
# Method in brief: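 Vehicle-treated tumor-bearing mice served as controls (C) for compound-treated mice (T). Reported figure is T divided by C.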
smiles,measurement,setting,value
COc1cc(NS(C)(=O)=O)ccc1Nc1c2ccccc2nc2ccccc12,T/C,"endpoint: mean survival time, dose: 1.0 mg/kg/injection, schedule: Q01DX009 (ip), vehicle: saline",110 % of control
same,T/C,"endpoint: mean survival time, dose: 1.0 mg/kg/injection, schedule: Q01DX009 (sc), vehicle: saline",101 % of control
same,T/C,"endpoint: mean survival time, dose: 1.8 mg/kg/injection, schedule: Q01DX009 (ip), vehicle: other",185 % of control
same,T/C,"endpoint: mean survival time, dose: 2.0 mg/kg/injection, schedule: Q01DX009 (sc), vehicle: saline",104 % of control
same,T/C,"endpoint: mean survival time, dose: 2.0 mg/kg/injection, schedule: Q03HX008 (ip), vehicle: saline",150 % of control
same,T/C,"endpoint: mean survival time, dose: 2.0 mg/kg/injection, schedule: Q03HX024 (ip), vehicle: saline",151 % of control
same,T/C,"endpoint: mean survival time, dose: 3.75 mg/kg/injection, schedule: Q01DX009 (ip), vehicle: other",173 % of control and 174 % of control
same,T/C,"endpoint: mean survival time, dose: 3.75 mg/kg/injection, schedule: Q04DX003 (ip), vehicle: other",98 % of control
same,T/C,"endpoint: mean survival time, dose: 4.0 mg/kg/injection, schedule: Q01DX009 (ip), vehicle: saline",155 % of control and 218 % of control and 161 % of control
same,T/C,"endpoint: mean survival time, dose: 4.0 mg/kg/injection, schedule: Q01DX009 (oral), vehicle: saline",102 % of control
same,T/C,"endpoint: mean survival time, dose: 4.0 mg/kg/injection, schedule: Q01DX009 (sc), vehicle: saline",113 % of control
same,T/C,"endpoint: mean survival time, dose: 4.0 mg/kg/injection, schedule: Q03HX008 (ip), vehicle: saline",164 % of control
same,T/C,"endpoint: mean survival time, dose: 4.0 mg/kg/injection, schedule: Q03HX016 (ip), vehicle: saline",346 % of control
same,T/C,"endpoint: mean survival time, dose: 4.0 mg/kg/injection, schedule: Q03HX024 (ip), vehicle: saline",122 % of control
same,T/C,"endpoint: mean survival time, dose: 7.5 mg/kg/injection, schedule: Q01DX009 (ip), vehicle: other",91 % of control and 93 % of control
same,T/C,"endpoint: mean survival time, dose: 7.5 mg/kg/injection, schedule: Q04DX003 (ip), vehicle: other",150 % of control
same,T/C,"endpoint: mean survival time, dose: 8.0 mg/kg/injection, schedule: Q01DX009 (oral), vehicle: saline",113 % of control
same,T/C,"endpoint: mean survival time, dose: 8.0 mg/kg/injection, schedule: Q03HX008 (ip), vehicle: saline",86 % of control
same,T/C,"endpoint: mean survival time, dose: 8.0 mg/kg/injection, schedule: Q03HX016 (ip), vehicle: saline",93 % of control
same,T/C,"endpoint: mean survival time, dose: 15.0 mg/kg/injection, schedule: Q01DX001 (ip), vehicle: other",154 % of control
same,T/C,"endpoint: mean survival time, dose: 15.0 mg/kg/injection, schedule: Q04DX003 (ip), vehicle: other",124 % of control and 221 % of control
same,T/C,"endpoint: mean survival time, dose: 16.0 mg/kg/injection, schedule: Q01DX001 (sc), vehicle: saline",112 % of control
same,T/C,"endpoint: mean survival time, dose: 16.0 mg/kg/injection, schedule: Q01DX009 (oral), vehicle: saline",102 % of control
same,T/C,"endpoint: mean survival time, dose: 16.0 mg/kg/injection, schedule: Q01DX009 (sc), vehicle: saline",101 % of control
same,T/C,"endpoint: mean survival time, dose: 16.0 mg/kg/injection, schedule: Q04DX003 (ip), vehicle: saline",150 % of control
same,T/C,"endpoint: mean survival time, dose: 32.0 mg/kg/injection, schedule: Q01DX001 (sc), vehicle: saline",117 % of control
same,T/C,"endpoint: mean survival time, dose: 32.0 mg/kg/injection, schedule: Q01DX009 (oral), vehicle: saline",93 % of control
same,T/C,"endpoint: mean survival time, dose: 32.0 mg/kg/injection, schedule: Q04DX003 (ip), vehicle: saline",153 % of control
same,T/C,"endpoint: mean survival time, dose: 64.0 mg/kg/injection, schedule: Q01DX001 (oral), vehicle: saline",109 % of control
same,T/C,"endpoint: mean survival time, dose: 64.0 mg/kg/injection, schedule: Q01DX001 (sc), vehicle: saline",119 % of control
same,T/C,"endpoint: mean survival time, dose: 64.0 mg/kg/injection, schedule: Q08DX002 (ip), vehicle: saline",154 % of control
same,T/C,"endpoint: mean survival time, dose: 128.0 mg/kg/injection, schedule: Q01DX001 (ip), vehicle: saline",92 % of control
same,T/C,"endpoint: mean survival time, dose: 128.0 mg/kg/injection, schedule: Q01DX001 (oral), vehicle: saline",114 % of control
same,T/C,"endpoint: mean survival time, dose: 128.0 mg/kg/injection, schedule: Q01DX001 (sc), vehicle: saline",117 % of control
same,T/C,"endpoint: mean survival time, dose: 256.0 mg/kg/injection, schedule: Q01DX001 (oral), vehicle: saline",104 % of control
same,T/C,"endpoint: mean survival time, dose: 256.0 mg/kg/injection, schedule: Q01DX001 (sc), vehicle: saline",118 % of control
same,T/C,"endpoint: mean survival time, dose: 512.0 mg/kg/injection, schedule: Q01DX001 (oral), vehicle: saline",112 % of control
same,T/C,"endpoint: median survival time, dose: 0.25 mg/kg/injection, schedule: Q01DX009 (sc), vehicle: other",112 % of control
same,T/C,"endpoint: median survival time, dose: 0.25 mg/kg/injection, schedule: Q03HX016 (ip), vehicle: other",118 % of control
same,T/C,"endpoint: median survival time, dose: 0.5 mg/kg/injection, schedule: Q01DX009 (sc), vehicle: other",112 % of control
same,T/C,"endpoint: median survival time, dose: 1.0 mg/kg/injection, schedule: Q01DX009 (ip), vehicle: saline with Tween-80",165 % of control
same,T/C,"endpoint: median survival time, dose: 1.0 mg/kg/injection, schedule: Q01DX009 (oral), vehicle: other",100 % of control
same,T/C,"endpoint: median survival time, dose: 1.0 mg/kg/injection, schedule: Q01DX009 (sc), vehicle: other",112 % of control
same,T/C,"endpoint: median survival time, dose: 1.0 mg/kg/injection, schedule: Q03HX008 (ip), vehicle: other",162 % of control
same,T/C,"endpoint: median survival time, dose: 1.0 mg/kg/injection, schedule: Q03HX016 (ip), vehicle: other",150 % of control
same,T/C,"endpoint: median survival time, dose: 1.0 mg/kg/injection, schedule: Q03HX024 (ip), vehicle: other",175 % of control
same,T/C,"endpoint: median survival time, dose: 2.0 mg/kg/injection, schedule: Q01DX001 (ip), vehicle: other",118 % of control
same,T/C,"endpoint: median survival time, dose: 2.0 mg/kg/injection, schedule: Q01DX001 (sc), vehicle: other",112 % of control
same,T/C,"endpoint: median survival time, dose: 2.0 mg/kg/injection, schedule: Q01DX009 (ip), vehicle: other",150 % of control and 161 % of control
same,T/C,"endpoint: median survival time, dose: 2.0 mg/kg/injection, schedule: Q01DX009 (oral), vehicle: other",100 % of control
same,T/C,"endpoint: median survival time, dose: 2.0 mg/kg/injection, schedule: Q03HX008 (ip), vehicle: other",181 % of control
same,T/C,"endpoint: median survival time, dose: 2.0 mg/kg/injection, schedule: Q03HX016 (ip), vehicle: other",181 % of control
same,T/C,"endpoint: median survival time, dose: 2.0 mg/kg/injection, schedule: Q04DX003 (ip), vehicle: other",120 % of control
same,T/C,"endpoint: median survival time, dose: 2.59 mg/kg/injection, schedule: Q04DX003 (ip), vehicle: other",124 % of control
same,T/C,"endpoint: median survival time, dose: 4.0 mg/kg/injection, schedule: Q01DX001 (sc), vehicle: other",112 % of control
same,T/C,"endpoint: median survival time, dose: 4.0 mg/kg/injection, schedule: Q01DX009 (ip), vehicle: other",193 % of control and 200 % of control
same,T/C,"endpoint: median survival time, dose: 4.0 mg/kg/injection, schedule: Q01DX009 (ip), vehicle: saline with Tween-80",151 % of control (2×) and 163 % of control
same,T/C,"endpoint: median survival time, dose: 4.0 mg/kg/injection, schedule: Q01DX009 (oral), vehicle: other",112 % of control
same,T/C,"endpoint: median survival time, dose: 4.0 mg/kg/injection, schedule: Q01DX009 (sc), vehicle: other",150 % of control
same,T/C,"endpoint: median survival time, dose: 8.0 mg/kg/injection, schedule: Q01DX001 (oral), vehicle: other",112 % of control
same,T/C,"endpoint: median survival time, dose: 8.0 mg/kg/injection, schedule: Q01DX001 (sc), vehicle: other",112 % of control
same,T/C,"endpoint: median survival time, dose: 8.0 mg/kg/injection, schedule: Q01DX009 (ip), vehicle: other",87 % of control and 88 % of control
same,T/C,"endpoint: median survival time, dose: 8.0 mg/kg/injection, schedule: Q01DX009 (oral), vehicle: other",150 % of control
same,T/C,"endpoint: median survival time, dose: 8.0 mg/kg/injection, schedule: Q01DX009 (sc), vehicle: other",112 % of control
same,T/C,"endpoint: median survival time, dose: 8.0 mg/kg/injection, schedule: Q04DX003 (ip), vehicle: other",181 % of control
same,T/C,"endpoint: median survival time, dose: 8.0 mg/kg/injection, schedule: Q08DX002 (ip), vehicle: other",156 % of control
same,T/C,"endpoint: median survival time, dose: 12.0 mg/kg/injection, schedule: Q04DX003 (ip), vehicle: other",186 % of control
same,T/C,"endpoint: median survival time, dose: 16.0 mg/kg/injection, schedule: Q01DX009 (ip), vehicle: other",90 % of control
same,T/C,"endpoint: median survival time, dose: 16.0 mg/kg/injection, schedule: Q01DX009 (oral), vehicle: other",87 % of control
same,T/C,"endpoint: median survival time, dose: 16.0 mg/kg/injection, schedule: Q01DX009 (sc), vehicle: other",87 % of control
same,T/C,"endpoint: median survival time, dose: 16.0 mg/kg/injection, schedule: Q04DX003 (ip), vehicle: other",150 % of control and 175 % of control
same,T/C,"endpoint: median survival time, dose: 16.0 mg/kg/injection, schedule: Q08DX002 (ip), vehicle: other",175 % of control
same,T/C,"endpoint: median survival time, dose: 20.0 mg/kg/injection, schedule: Q04DX003 (ip), vehicle: other",98 % of control
same,T/C,"endpoint: median survival time, dose: 32.0 mg/kg/injection, schedule: Q04DX003 (ip), vehicle: other",106 % of control
same,T/C,"endpoint: median survival time, dose: 64.0 mg/kg/injection, schedule: Q01DX001 (oral), vehicle: other",150 % of control
same,T/C,"endpoint: median survival time, dose: 64.0 mg/kg/injection, schedule: Q01DX001 (sc), vehicle: other",156 % of control
same,T/C,"endpoint: median survival time, dose: 128.0 mg/kg/injection, schedule: Q01DX001 (sc), vehicle: other",118 % of control

# — PubChem BioAssay AID256 (DTP/NCI, 2004)
